This is an account of results in US6916802B2, “Amino ceramide-like compounds and therapeutic methods of use” (Genzyme Corporation, priority 2002, dated 2005).

The target in this test is T1, GlcCer synthase (Canis lupus familiaris, UniProt A0A8I3MXG6).
T1 sequence (A0A8I3MXG6 1-394): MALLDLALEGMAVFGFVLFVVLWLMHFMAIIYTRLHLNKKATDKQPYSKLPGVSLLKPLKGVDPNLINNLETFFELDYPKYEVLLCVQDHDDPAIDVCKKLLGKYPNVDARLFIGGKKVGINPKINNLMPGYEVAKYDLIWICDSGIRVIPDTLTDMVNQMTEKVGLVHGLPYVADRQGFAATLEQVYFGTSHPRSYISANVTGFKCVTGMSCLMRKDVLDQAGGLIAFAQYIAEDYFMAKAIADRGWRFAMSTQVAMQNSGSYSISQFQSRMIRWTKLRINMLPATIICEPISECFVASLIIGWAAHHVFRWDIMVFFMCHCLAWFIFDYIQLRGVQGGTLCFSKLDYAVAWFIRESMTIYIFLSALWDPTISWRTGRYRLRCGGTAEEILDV
Put plainly: Glycosylceramide synthase activity, MDCK cell homogenate (Specific Example 2). In kind it is biochemical, canine. How it is done: Glycosylceramide synthase activity. The enzyme activity was measured by the method previously described in Skukla, G. et al., Biochim. Biophys. Acta, 1083:101-108 (1991). MDCK cell homogenate (120 μg of protein) was incubated with uridinediphosphate [^3H]glucose (100,000 cpm) and liposomes consisting of 85 μg octanoylsphingosine, 570 μg dioleoyphosphatidylcholine and 100 μg sodium sulfatide in 200 μl of reaction mixture and kept for 1 h at 37° C. P4 and P4 derivatives dissolved in dimethyl sulfoxide were dispersed into the reaction mixture after adding liposomes. The final concentration of dimethyl sulfoxide was kept 1% under which the enzyme activity was not at all inhibited.

Each structure is given as a SMILES string.

On to `CCCCCCCCCCCCCCCC(=O)N[C@H](CN1CCCC1)[C@H](O)c1ccc(OC)c(OC)c1` [D-t-3′,4′-dimethoxy-P4], for which the “potency as GlcCer synthase inhibitor, in words” value is on record as “inferior to these dioxy derivatives”.
